Experimental data as given in paper PMC6317804, “The integration of pharmacophore-based 3D QSAR modeling and virtual screening in safety profiling: A case study to identify antagonistic activities against adenosine receptor, A2A, using 1,897 known drugs” (PLoS ONE, 2019).

Key:
[1] = target: T1, adenosine receptor 2A (A2A) (Homo sapiens, UniProt P29274); experiment: Functional antagonist assay monitoring cAMP (CEREP); format: cell-based;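 for IC50, cAMP, M: eight-point concentration-response from 0 to 10 µM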
T1 construct: CEREP (Poitiers, France), paid service
T1 sequence (P29274 whole entry): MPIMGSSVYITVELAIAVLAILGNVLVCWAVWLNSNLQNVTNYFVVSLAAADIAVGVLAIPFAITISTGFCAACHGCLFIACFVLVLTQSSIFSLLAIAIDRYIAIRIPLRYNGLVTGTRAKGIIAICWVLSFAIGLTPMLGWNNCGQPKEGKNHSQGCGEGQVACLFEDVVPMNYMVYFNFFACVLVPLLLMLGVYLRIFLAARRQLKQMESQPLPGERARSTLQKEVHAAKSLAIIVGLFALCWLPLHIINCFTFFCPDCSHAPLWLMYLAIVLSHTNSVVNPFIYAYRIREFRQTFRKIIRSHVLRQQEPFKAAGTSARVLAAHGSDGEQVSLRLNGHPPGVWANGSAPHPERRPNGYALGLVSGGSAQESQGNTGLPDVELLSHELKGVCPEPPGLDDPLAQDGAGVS
Protocol: (§1) Competition binding assay using radioactive ligands and functional assay monitoring cAMP were carried out as a paid service provided by CEREP (Poitiers, France). The functional assays monitoring Ca^2+ flux were carried out as a paid service provided by DiscoveRx (Carlsbad, CA).

[2] = target: T1, adenosine receptor 2A (A2A); experiment: Functional assay monitoring Ca2+ flux (DiscoveRx); format: cell-based; parameters: inhibition: dose or concentration left out as unconfirmed; conditions: for inhibition: read-out: IC50, Ca2+, M; for inhibition at up to 10 µM: read-out: IC50, Ca2+
Protocol: as §1

[3] = target: T1, adenosine receptor 2A (A2A); experiment: Competition binding assay using radioactive ligands (CEREP); parameters: inhibition: dose or concentration left out as unconfirmed; conditions: for inhibition at 10 µM: fixed compound concentration of 10 μM;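 for all read-outs here: compounds screened at a single fixed 10 µM concentration for displacement of a radioligand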
Protocol: as §1

[4] = concentration-response up to 10 μM, read-out: IC50, cAMP
[5] = concentration-response up to 10 μM

SMILES | inhibition at up to 10 µM [1, 4] [%] | inhibition [2] [%] | inhibition at 10 µM [3] [%] | other results
CCCCCOC(=O)Nc1nc(=O)n([C@@H]2O[C@H](C)[C@@H](O)[C@H]2O)cc1F [Capecitabine] | < 50 | < 50 | < 50 | 
CC1=C(C(=O)O)N2C(=O)[C@@H](NC(=O)[C@H](N)c3ccc(O)cc3)[C@H]2SC1 [Cefadroxil] | < 50 |  | < 50 | inhibition at up to 10 µM [2, 5]: < 50%
C=CC1=C(C(=O)O)N2C(=O)[C@@H](NC(=O)/C(=N\O)c3csc(N)n3)[C@H]2SC1 [Cefdinir] | < 50 | < 50 | < 50 | 
C=CC1=C(C(=O)O)N2C(=O)[C@@H](NC(=O)/C(=N\OCC(=O)O)c3csc(N)n3)[C@H]2SC1 [Cefixime] | < 50 | < 50 | < 50 | 
CO[C@@]1(NC(=O)Cc2cccs2)C(=O)N2C(C(=O)O)=C(COC(N)=O)CS[C@@H]21 [Cefoxitin] | < 50 | < 50 | < 50 | 
CC1=C(C(=O)O)N2C(=O)[C@@H](NC(=O)[C@H](N)c3ccccc3)[C@H]2SC1 [Cephalexin] | < 50 | < 50 | < 50 | 
C#C[C@]1(O)CC[C@H]2[C@@H]3CCC4=CCCC[C@@H]4[C@H]3C(=C)C[C@@]21CC [Desogestrel] | < 50 | < 50 | < 50 | 
COc1ccc([C@@H]2Sc3ccccc3N(CCN(C)C)C(=O)[C@@H]2OC(C)=O)cc1 [Diltiazem] | < 50 | < 50 | < 50 | 
COc1cccc2c1C(=O)c1c(O)c3c(c(O)c1C2=O)C[C@@](O)(C(=O)CO)C[C@@H]3O[C@H]1C[C@H](N)[C@H](O)[C@H](C)O1 [Doxorubicin] | < 50 |  | < 50 | IC50 [2, 5]: 2500 nM
C[C@@H](O)[C@H]1C(=O)N2C(C(=O)O)=C(S[C@@H]3CN[C@H](C(=O)Nc4cccc(C(=O)O)c4)C3)[C@H](C)[C@H]12 [Ertapenem] | < 50 | < 50 | < 50 | 
Cc1cc(C#N)cc(C)c1Oc1nc(Nc2ccc(C#N)cc2)nc(N)c1Br [Etravirine] | < 50 |  | < 50 | inhibition at up to 10 µM [2, 5]: < 50%
NC(N)=Nc1nc(CSCCC(N)=NS(N)(=O)=O)cs1 [Famotidine] |  | < 50 | < 50 | inhibition [1, 4]: < 50%
NC(=O)OCC(COC(N)=O)c1ccccc1 [Felbamate] | < 50 | < 50 | < 50 | 
Cc1onc(-c2c(F)cccc2Cl)c1C(=O)N[C@@H]1C(=O)N2[C@@H]1SC(C)(C)[C@@H]2C(=O)O [Flucloxacillin] | < 50 | < 50 | < 50 | 
NCC1(CC(=O)O)CCCCC1 [Gabapentin] |  | < 50 |  | inhibition ([1]; read-out: IC50, cAMP, M): < 50%; inhibition ([3]; read-out: %inhibition, binding): < 50%
CCC1=C(C)CN(C(=O)NCCc2ccc(S(=O)(=O)NC(=O)N[C@H]3CC[C@H](C)CC3)cc2)C1=O [Glimepiride] | < 50 |  | < 50 | inhibition at up to 10 µM [2, 5]: < 50%
COc1ccc2c(c1)C(=O)N(CCc1ccc(S(=O)(=O)NC(=O)NC3CCCCC3)cc1)C(=O)C2(C)C [Gliquidone] | < 50 | < 50 | < 50 | 
CC(C)[N+]1(C)[C@@H]2CC[C@H]1C[C@@H](OC(=O)C(CO)c1ccccc1)C2 (stereo partly drawn) [Ipratropium bromide] |  |  | < 50 | IC50, cAMP, M [1, 5]: N.E. (N.E., no effects. Results showing an inhibition or stimulation lower than 50% are considered to represent insignificant effects of the test compounds.); IC50, Ca2+, M [2, 5]: N.E. (N.E., no effects. Results showing an inhibition or stimulation lower than 50% are considered to represent insignificant effects of the test compounds.)
COC(=O)C1=C(C)NC(C)=C(C(=O)OC(C)C)C1c1cccc2nonc12 (stereo not drawn) [Isradipine] | < 50 | < 50 | < 50 | 
Nc1nnc(-c2cccc(Cl)c2Cl)c(N)n1 [Lamotrigine] | < 50 | < 50 | < 50 | 
Nc1ccc(O)c(C(=O)O)c1 [Mesalazine] | < 50 |  | < 50 | inhibition at up to 10 µM [2, 5]: < 50%

SMILES | inhibition at up to 10 µM [1, 4] [%] | inhibition [2] [%] | inhibition at 10 µM [3] [%] | other results
COCCc1ccc(OCC(O)CNC(C)C)cc1 (stereo not drawn) [Metoprolol] | < 50 | < 50 | < 50 | 
COc1ccc(OC)c(C(O)CNC(=O)CN)c1 (stereo not drawn) [Midodrine] | < 50 | < 50 | < 50 | 
Cc1[nH]c(=O)c(C#N)cc1-c1ccncc1 [Milrinone] | < 50 | < 50 | < 50 | 
OC(CNCC(O)C1CCc2cc(F)ccc2O1)C1CCc2cc(F)ccc2O1 (stereo not drawn) [Nebivolol] | < 50 | < 50 | < 50 | 
Cc1c(O)cccc1C(=O)N[C@@H](CSc1ccccc1)[C@H](O)CN1C[C@H]2CCCC[C@H]2C[C@H]1C(=O)NC(C)(C)C [Nelfinavir] | < 50 |  | < 50 | inhibition at up to 10 µM [2, 5]: < 50%
O=C1CCCC(=O)C1C(=O)c1ccc(C(F)(F)F)cc1[N+](=O)[O-] [Nitisinone] | < 50 |  | < 50 | inhibition at up to 10 µM [2, 5]: < 50%
NC[C@H](O)c1ccc(O)c(O)c1 [Norepinephrine] | < 50 | < 50 | < 50 | 
CN(C)CCC(c1ccccc1)c1ccccn1 (stereo not drawn) [Pheniramine] | < 50 |  | < 50 | inhibition at up to 10 µM [2, 5]: < 50%
Cc1ccc2c(c1)c1c3n2CCNC3CCC1 (stereo not drawn) [Pirlindole] | < 50 |  | < 50 | inhibition at up to 10 µM [2, 5]: < 50%
O=C(Nc1cccc2c(=O)cc(-c3nnn[nH]3)oc12)c1ccc(OCCCCc2ccccc2)cc1 [Pranlukast] | < 50 |  | < 50 | IC50 [2, 5]: 830 nM
CCCNCC(O)COc1ccccc1C(=O)CCc1ccccc1 (stereo not drawn) [Propafenone] | < 50 | < 50 | < 50 | 
Cc1ncc(CO)c(C=O)c1O [Pyridoxal] | < 50 | < 50 | < 50 | 
NC(=O)c1ncn([C@@H]2O[C@H](CO)[C@@H](O)[C@H]2O)n1 [Ribavirin] | < 50 | < 50 | < 50 | 
CN(CCOc1ccc(CC2SC(=O)NC2=O)cc1)c1ccccn1 (stereo not drawn) [Rosiglitazone] | < 50 | < 50 | < 50 | 
C[S+](CC[C@H](N)C(=O)[O-])C[C@H]1O[C@@H](n2cnc3c(N)ncnc32)[C@H](O)[C@@H]1O (stereo partly drawn) [S-Adenosyl-methionine] | < 50 |  | 74 | inhibition at up to 10 µM [2, 5]: < 50%
O=C(Oc1ccccc1C(=O)O)c1ccccc1O [Salsalate] | < 50 | < 50 | < 50 | 
CC(C)OC(=O)[C@H](C)N[P@](=O)(OC[C@H]1O[C@@H](n2ccc(=O)[nH]c2=O)[C@](C)(F)[C@@H]1O)Oc1ccccc1 [Sofosbuvir] |  | < 50 | < 50 | inhibition ([1]; read-out: IC50, cAMP, M): < 50%
CCN1CCCC1CNC(=O)c1cc(S(N)(=O)=O)ccc1OC (stereo not drawn) [Sulpiride] | < 50 | < 50 | < 50 | 
CCCSc1nc(N[C@@H]2C[C@H]2c2ccc(F)c(F)c2)c2nnn([C@@H]3C[C@H](OCCO)[C@@H](O)[C@H]3O)c2n1 [Ticagrelor] | < 50 |  | < 50 | inhibition at up to 10 µM [2, 5]: < 50%
Nc1nc(N)c2nc(-c3ccccc3)c(N)nc2n1 [Triamterene] | < 50 | < 50 | < 50 | 
